Measurements as given in ChEMBL document CHEMBL1926654, “Design and synthesis of novel β-diketo derivatives as HIV-1 integrase inhibitors” (Bioorg Med Chem, 2012).

How the values were obtained:
[1] = molecular target: Human immunodeficiency virus type 1 integrase (Human immunodeficiency virus 1, UniProt Q7ZJM1); experiment: Inhibition of Human immunodeficiency virus 1 integrase-mediated strand transfer activity after 1 hr
[2] = Cytotoxicity against human TZM-bl cells after 48 hrs by MTT assay; type: cell-based
[3] = test system: Human immunodeficiency virus 1; experiment: Antiviral activity against Human immunodeficiency virus 1 infected in human TZM-bl cells assessed as inhibition of viral replication after 48 hrs by inverted microscopic analysis; type: functional, organism-based; details: Human immunodeficiency virus 1, TZM-bl
[4] = Therapeutic index, ratio of CC50 for human TZM-bl cells to EC50 for Human immunodeficiency virus 1; type: cell-based; details: read-out: Ratio CC50/EC50

Sequence of Human immunodeficiency virus type 1 integrase (Q7ZJM1 whole entry): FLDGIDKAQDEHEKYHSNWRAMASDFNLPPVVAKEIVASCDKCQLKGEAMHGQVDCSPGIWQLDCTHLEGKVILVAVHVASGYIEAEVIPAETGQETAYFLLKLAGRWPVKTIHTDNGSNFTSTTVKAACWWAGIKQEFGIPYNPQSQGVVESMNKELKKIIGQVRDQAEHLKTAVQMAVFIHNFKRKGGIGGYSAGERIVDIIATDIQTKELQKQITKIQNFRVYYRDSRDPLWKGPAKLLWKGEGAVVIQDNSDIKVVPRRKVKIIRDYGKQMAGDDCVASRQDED

Cc1c(C(=O)/C=C(\O)c2ccccc2)nnn1Cc1ccc(F)cc1
IC50 [1]: > 59 µM

COc1ccc(/C(O)=C/C(=O)c2nnn(Cc3ccc(F)cc3)c2C)cc1
IC50 [1]: > 54 µM

COc1ccc(/C(O)=C/C(=O)c2nnn(Cc3ccc(F)cc3)c2C)cc1OC
IC50 [1]: > 50 µM

COc1cc(/C(O)=C/C(=O)c2nnn(Cc3ccc(F)cc3)c2C)cc(OC)c1OC
IC50 [1]: > 47 µM

Cc1c(C(=O)/C=C(\O)c2ccccc2)nnn1Cc1cccc(F)c1
IC50 [1]: > 59 µM

COc1ccc(/C(O)=C/C(=O)c2nnn(Cc3cccc(F)c3)c2C)cc1
IC50 [1]: > 54 µM

COc1ccc(/C(O)=C/C(=O)c2nnn(Cc3cccc(F)c3)c2C)cc1OC
IC50 [1]: > 50 µM

COc1cc(/C(O)=C/C(=O)c2nnn(Cc3cccc(F)c3)c2C)cc(OC)c1OC
IC50 [1]: > 47 µM

Cc1c(C(=O)/C=C(\O)c2ccc(O)cc2)nnn1Cc1ccc(F)cc1
IC50 [1]: > 56 µM

Cc1c(C(=O)/C=C(\O)c2ccc(O)c(O)c2)nnn1Cc1ccc(F)cc1
IC50 [1]: 40 µM

Cc1c(C(=O)/C=C(\O)c2cc(O)c(O)c(O)c2)nnn1Cc1ccc(F)cc1
CC50 at 48 h [2]: 33.4 µM
EC50 [3]: 8.92 µM
selectivity ratio [4]: 3.7
IC50 [1]: 2.6 µM

Cc1c(C(=O)/C=C(\O)c2ccc(O)cc2)nnn1Cc1cccc(F)c1
IC50 [1]: > 56 µM

Cc1c(C(=O)/C=C(\O)c2ccc(O)c(O)c2)nnn1Cc1cccc(F)c1
IC50 [1]: 32 µM

Cc1c(C(=O)/C=C(\O)c2cc(O)c(O)c(O)c2)nnn1Cc1cccc(F)c1
CC50 at 48 h [2]: 36.6 µM
EC50 [3]: 7.32 µM
selectivity ratio [4]: 5
IC50 [1]: 0.78 µM

Cc1nnc(C(=O)NC(C)(C)c2nc(C(=O)NCc3ccc(F)cc3)c(O)c(=O)n2C)o1
CC50 at 48 h [2]: > 30 µM
EC50 [3]: 0.025 µM
